Measurements as given in paper PMC3967968 (Molecular Biology of the Cell, 2014).

T1: MBP-fused Drosophila EB1 (Drosophila, UniProt Q9XZ57 1-290)
T1 sequence (looked up): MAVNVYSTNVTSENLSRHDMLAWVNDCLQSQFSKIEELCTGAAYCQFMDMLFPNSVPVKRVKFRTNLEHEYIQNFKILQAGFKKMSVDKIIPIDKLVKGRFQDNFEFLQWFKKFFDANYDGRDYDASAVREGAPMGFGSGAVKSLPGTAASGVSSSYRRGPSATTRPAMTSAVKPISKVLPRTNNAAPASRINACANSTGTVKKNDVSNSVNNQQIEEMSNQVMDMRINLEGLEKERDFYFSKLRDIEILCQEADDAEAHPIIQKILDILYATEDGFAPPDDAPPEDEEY


What was measured:
human EB1 = conditions: read-out: Kd with human EB1, ref Honnappa et al. 2005; cited from earlier work
MBP-fused Drosophila EB1 = biological target: T1, MBP-fused Drosophila EB1; experiment: ITC

Row | Kd (MBP-fused Drosophila EB1) [nM] | Molecule | Kd (human EB1) [nM]
1 | – | adenomatous polyposis coli protein: native human EB1-interacting protein | ~5000
2 | ~570 | RTRGRSRIPRWVGRRG [aptamer Perfect peptide] | –
